Structures can show the parent of a compound that is named as a salt.
What was measured:
[1] = Hygroscopicity of the solid salts; assay type: physicochemical; settings: for hygroscopicity of the starting material: remark in brackets on the reagent used
[2] = milieu with a high relative humidity content; U.S. Pat. No. 4,602,039; cited from earlier work

Compound | hygroscopicity of the starting material [1] | other results
CCC(=O)O[C@H](CC(=O)O)C[N+](C)(C)C [Example 2, Propionyl L-Carnitine Salt with Taurine Chloride] | – | hygroscopicity of the isolated solid ([1]; white crystalline solid as obtained): non-hygroscopic
C[N+](C)(C)C[C@H](O)CC(=O)[O-].O=C(O)/C=C/C(=O)O [L-carnitine fumarate] | – | hygroscopicity of a prior-art salt [2]: highly non-hygroscopic
CC(=O)O[C@H](CC(=O)[O-])C[N+](C)(C)C [acetyl L-carnitine inner salt] | hygroscopic | –
NCC(=O)O [glycine hydrochloride] | hygroscopic | –
CCC(=O)O[C@H](CC(=O)[O-])C[N+](C)(C)C [propionyl L-carnitine inner salt] | hygroscopic | –

Source: patent US7858820B2, “Solid compositions suitable for oral administration containing non-hygroscopic salts of L-carnitine and the alkanoyl L-carnitines with taurine chloride and glycine chloride” (Sigma-Tau Industrie Farmaceutiche Riunite S.p.A., priority 2001, dated 2010)
